# US11141413B2, “Method of treating renal cell carcinoma using N-(4-(6,7-dimethoxyquinolin-4-yloxy)phenyl)-N′-(4-fluorophenyl)cyclopropane-1,1-dicarboxamide, (2S)-hydroxybutanedioate” (Exelixis, Inc., priority 2016, dated 2021)
# Tests used:
# [1] = Solubility in aqueous media; type: physicochemical
# [2] = test system: metastatic renal cell carcinoma (mRCC); test: CABOSUN (ALLIANCE A031203) trial, cabozantinib vs sunitinib as initial targeted therapy
# Method: Pts were randomized 1:1 to receive Cabo (60 mg QD) or Sun (50 mg QD, 4 weeks on/2 weeks off). Pts were stratified by the IMDC risk groups (intermediate vs. poor risk) and bone metastasis (yes, no). […] Secondary endpoints included OS, investigator-assessed overall response rate (ORR), and toxicity. The Kaplan-Meier product-limit estimator was used to estimate the OS between treatment arms.
# [3] = test system: advanced renal cell carcinoma; details: nivolumab study; cited from earlier work
molecule,measurement,setting,value
"COc1cc2nccc(Oc3ccc(NC(=O)C4(C(=O)Nc5ccc(F)cc5)CC4)cc3)c2cc1OC.O=C(O)C[C@H](O)C(=O)O [Cabozantinib (S)-malate salt, N-(4-(6,7-dimethoxyquinolin-4-yloxy)phenyl)-N′-(4-fluorophenyl)cyclopropane-1,1-dicarboxamide, (2S)-hydroxybutanedioate]",Solubility in aqueous media,[1],practically insoluble in aqueous media
"CCN(CC)CCNC(=O)c1c(C)[nH]c(/C=C2\C(=O)Nc3ccc(F)cc32)c1C [sunitinib, reference compound]",All-causality grade 3 or 4 adverse events,"[2]; human, in vivo",68%
same,"Diarrhea, grade 3 or 4","[2]; human, in vivo",I1%
same,"Fatigue, grade 3 or 4","[2]; human, in vivo",15%
same,"Hematologic adverse events, grade 3 or 4","[2]; human, in vivo",22%
same,"Hypertension, grade 3 or 4","[2]; human, in vivo",22%
same,"Palmar-plantar erythrodysesthesia, grade 3 or 4","[2]; human, in vivo",4%
same,Median OS,[2]; in vivo,21.8 months
same,ORR,[2]; in vivo,18%
same,Median PFS,"[2]; untreated mRCC, intermediate or poor risk",5.6 months
nivolumab,Hazard ratio for death vs everolimus,[3],0.73
